Results on 58 compounds are retold here after ChEMBL document CHEMBL1124541, “Antibacterials. Synthesis and structure-activity studies of 3-aryl-2-oxooxazolidines. 1. The "B" group” (1989).

Converted amounts (≈) assume the structure as drawn. Some results are limits rather than exact numbers.

The term MIC denotes the lowest concentration that inhibits growth of the organism.

Assay [1] relates to Enterococcus faecalis. Put plainly: In vitro minimum inhibitory concentration against Enterococcus faecalis (STCO-19). In kind it is functional.
For assay [2], the system named is Staphylococcus aureus. Put plainly: In vitro minimum inhibitory concentration against Staphylococcus aureus (SFCO-1a). In kind it is functional.
For assay [3], the system named is Enterococcus faecalis.
Assay [4] has as its system Staphylococcus aureus.

As to `CC(=O)c1ccc(N2CC(CN)OC2=O)cc1` (stereo not given), the MIC in assay [1] and in assay [2] was greater than 128 µg/mL throughout. Take `CS(=O)(=O)c1ccc(N2CC(CN=[N+]=[N-])OC2=O)cc1` (stereo not given): the results for the MIC in assay [1] and in assay [2] were 8 µg/mL (≈ 27 µM) and 16 µg/mL (≈ 54 µM), respectively.

Consider `CS(=O)(=O)c1ccc(N2CC(CO)OC2=O)cc1` (stereo not given), for which the MIC in assay [1] and in assay [2] was 16 µg/mL (≈ 59 µM) each time. For the compound `NS(=O)(=O)c1ccc(N2CC(CO)OC2=O)cc1` (stereo not given), the MIC in assay [1] and in assay [2] was 128 µg/mL (≈ 470 µM) in each case. In the case of `CC(=O)OCC1CN(c2ccc(C(C)C)cc2)C(=O)O1` (stereo not given), the MIC in assay [1] and in assay [2] was 128 µg/mL (≈ 462 µM) throughout. With `CC(=O)c1ccc(N2C[C@H](CNC(=O)C(C)C)OC2=O)cc1`, the MIC in assay [1] was found to be 16 µg/mL (≈ 52.6 µM); in assay [2] it was 8 µg/mL (≈ 26.3 µM). The matching figures for `CC(=O)c1ccc(N2CC(CO)OC2=O)cc1` (stereo not given): 16 µg/mL (≈ 68 µM) and 16 µg/mL (≈ 68 µM). Regarding `CC(=O)c1ccc(N2CC(COS(=O)(=O)c3ccc(C)cc3)OC2=O)cc1` (stereo not given), the MIC in assay [1] and in assay [2] was 8 µg/mL (≈ 20.5 µM) in each case. `CC(=O)c1ccc(N2C[C@H](CNC(N)=O)OC2=O)cc1`: the MIC in assay [1] is 1 µg/mL (≈ 3.61 µM); in assay [2], 4 µg/mL (≈ 14.4 µM).

On to `CC(C)c1ccc(N2CC(CN=[N+]=[N-])OC2=O)cc1` (stereo not given), for which the MIC in assay [1] and in assay [2] was greater than 128 µg/mL each time. For the compound `CC(=O)NCC1CN(c2ccc([S+](C)[O-])cc2)C(=O)O1` (stereo not given), the MIC in assay [1] and in assay [2] was 4 µg/mL (≈ 13.5 µM) in each case. Turning to `CC1=C(C(=O)O)N2C(=O)[C@@H](NC(=O)[C@H](N)c3ccccc3)[C@H]2SC1` [CEPHALEXIN ANHYDROUS], the MIC in assay [1] was determined as 64 µg/mL (≈ 184 µM); in assay [2] it was 0.5 µg/mL (≈ 1.44 µM).

Take `CC(=O)c1ccc(N2CC(CN3C(=O)c4ccccc4C3=O)OC2=O)cc1` (stereo not given): the MIC in assay [1] and in assay [2] was greater than 128 µg/mL in each case. For `CCC1CN(c2ccc(S(C)(=O)=O)cc2)C(=O)O1` (stereo not given), the MIC in assay [1] and in assay [2] was 128 µg/mL (≈ 475 µM) each time.

In the case of `CC(C)c1ccc(N2CC(CCl)OC2=O)cc1` (stereo not given), the MIC in assay [1] and in assay [2] was 64 µg/mL (≈ 252 µM) throughout.

On to `CC(=O)c1ccc(N2CC(CN=[N+]=[N-])OC2=O)cc1` (stereo not given), for which the MIC in assay [1] and in assay [2] was greater than 128 µg/mL each time. Regarding `CS(=O)(=O)c1ccc(N2CC(CN)OC2=O)cc1` (stereo not given), the MIC in assay [1] and in assay [2] was greater than 128 µg/mL in each case. Regarding GENTAMICIN, the MIC in assay [3] was 16 µg/mL; in assay [4], 0.25 µg/mL. Take `CC(=O)NCC(=O)NC[C@H]1CN(c2ccc(C(C)=O)cc2)C(=O)O1`: the figures for the MIC in assay [1] and in assay [2] were greater than 128 µg/mL and 128 µg/mL (≈ 384 µM), respectively. The like results for `CSc1ccc(N2CC(CO)OC2=O)cc1` (stereo not given) were, in that order, 128 µg/mL (≈ 535 µM) and 128 µg/mL (≈ 535 µM). The like results for `CC(=O)c1ccc(N2C[C@H](CNC(=O)CSC#N)OC2=O)cc1` were, in that order, 32 µg/mL (≈ 96 µM) and 32 µg/mL (≈ 96 µM).

Consider `CC(=O)c1ccc(N2C[C@H](CNC(=O)N(C)C)OC2=O)cc1`, for which the MIC in assay [1] and in assay [2] was 128 µg/mL (≈ 419 µM) throughout. `CCC(=O)NC[C@H]1CN(c2ccc(C(C)=O)cc2)C(=O)O1`: the MIC in assay [1] and in assay [2] was 4 µg/mL (≈ 13.8 µM) in each case.

As for `NS(=O)(=O)c1ccc(N2CC(CCl)OC2=O)cc1` (stereo not given), the MIC in assay [1] was greater than 128 µg/mL; in assay [2], 16 µg/mL (≈ 55 µM). The like results for `CCC1CN(c2ccc(C(C)C)cc2)C(=O)O1` (stereo not given) were, in that order, greater than 128 µg/mL and greater than 128 µg/mL. The matching figures for `C[S+]([O-])c1ccc(N2CC(CCl)OC2=O)cc1` (stereo not given): 32 µg/mL (≈ 117 µM) and 32 µg/mL (≈ 117 µM). The matching figures for `C=CC1CN(c2ccc(C(C)=O)cc2)C(=O)O1` (stereo not given): greater than 128 µg/mL and greater than 128 µg/mL. Consider `CC(=O)c1ccc(N2C[C@H](CNC=O)OC2=O)cc1`, for which the MIC in assay [1] was determined as 8 µg/mL (≈ 30.5 µM); in assay [2] it was 4 µg/mL (≈ 15.3 µM).

With `CC(=O)c1ccc(N2C[C@H](CNC(=O)C3CC3)OC2=O)cc1`, the MIC in assay [1] worked out at 4 µg/mL (≈ 13.2 µM); in assay [2] it was 8 µg/mL (≈ 26.5 µM).

`CC(=O)c1ccc(N2C[C@H](CNC(=O)CC#N)OC2=O)cc1`: the MIC came out at 8 µg/mL (≈ 26.6 µM) in assay [1] and 16 µg/mL (≈ 53.1 µM) in assay [2]. The matching figures for `[N-]=[N+]=NCC1CN(c2ccc(S(N)(=O)=O)cc2)C(=O)O1` (stereo not given): 64 µg/mL (≈ 215 µM) and 32 µg/mL (≈ 108 µM). The like results for `CC1CN(c2ccc(C(C)C)cc2)C(=O)O1` (stereo not given) were, in that order, 128 µg/mL (≈ 584 µM) and 128 µg/mL (≈ 584 µM). The like results for `CC(=O)NCC1CN(c2ccc(S(N)(=O)=O)cc2)C(=O)O1` (stereo not given) were, in that order, 16 µg/mL (≈ 51.1 µM) and 32 µg/mL (≈ 102 µM). Consider `CC(=O)c1ccc(N2CC(COP(=O)(O)O)OC2=O)cc1` (stereo not given), for which the MIC in assay [1] and in assay [2] was greater than 128 µg/mL each time. In the case of `CC(=O)NCC1CN(c2ccc(S(C)(=O)=O)cc2)C(=O)O1` (stereo not given), the MIC in assay [1] and in assay [2] was 4 µg/mL (≈ 12.8 µM) throughout. Take `C[S+]([O-])c1ccc(N2CC(CO)OC2=O)cc1` (stereo not given): the MIC in assay [1] and in assay [2] was 64 µg/mL (≈ 251 µM) throughout. Turning to `CSc1ccc(N2CC(C)OC2=O)cc1` (stereo not given), the MIC in assay [1] and in assay [2] was greater than 128 µg/mL each time.

In the case of `CSc1ccc(N2CC(CNC(C)=O)OC2=O)cc1` (stereo not given), the MIC in assay [1] and in assay [2] was 4 µg/mL (≈ 14.3 µM) in each case. On to `CC(=O)c1ccc(N2CC(C)OC2=O)cc1` (stereo not given), for which the MIC in assay [1] and in assay [2] was greater than 128 µg/mL in each case.

Regarding `CC(C)c1ccc(N2CC(CO)OC2=O)cc1` (stereo not given), the MIC in assay [1] came out at 32 µg/mL (≈ 136 µM); in assay [2], 64 µg/mL (≈ 272 µM). The matching figures for `CC(=O)c1ccc(N2C[C@H](CNC(=O)OC(C)(C)C)OC2=O)cc1`: 128 µg/mL (≈ 383 µM) and 128 µg/mL (≈ 383 µM). The matching figures for `CC(=O)c1ccc(N2CC(CF)OC2=O)cc1` (stereo not given): 128 µg/mL (≈ 540 µM) and 64 µg/mL (≈ 270 µM).

`CS(=O)(=O)c1ccc(N2CC(CCl)OC2=O)cc1` (stereo not given): the MIC in assay [1] worked out at 4 µg/mL (≈ 13.8 µM); in assay [2], 8 µg/mL (≈ 27.6 µM).

For the compound `CC(=O)c1ccc(N2C[C@H](CNC(=O)C(Cl)Cl)OC2=O)cc1`, the MIC in assay [1] and in assay [2] was 2 µg/mL (≈ 5.79 µM) each time. As for `CC(=O)c1ccc(N2CC(CCl)OC2=O)cc1` (stereo not given), the MIC worked out at 64 µg/mL (≈ 252 µM) in assay [1] and 32 µg/mL (≈ 126 µM) in assay [2]. In assay [1], `CN[C@H](CC(C)C)C(=O)N[C@H]1C(=O)N[C@@H](CC(N)=O)C(=O)N[C@H]2C(=O)N[C@H]3C(=O)N[C@H](C(=O)N[C@H](C(=O)O)c4cc(O)cc(O)c4-c4cc3ccc4O)[C@H](O)c3ccc(c(Cl)c3)Oc3cc2cc(c3O[C@@H]2O[C@H](CO)[C@@H](O)[C@H](O)[C@H]2O[C@H]2C[C@](C)(N)[C@H](O)[C@H](C)O2)Oc2ccc(cc2Cl)[C@H]1O` [VANCOMYCIN] registered an MIC of 2 µg/mL (≈ 1.38 µM). Consider `CSc1ccc(N2CC(CCl)OC2=O)cc1` (stereo not given), for which the MIC in assay [1] and in assay [2] was greater than 128 µg/mL each time. Take `CC(=O)CC(=O)NC[C@H]1CN(c2ccc(C(C)=O)cc2)C(=O)O1`: the results for the MIC in assay [1] and in assay [2] were 16 µg/mL (≈ 50.3 µM) and 8 µg/mL (≈ 25.1 µM), respectively. The like results for `CCCC(=O)OCC1CN(c2ccc(C(C)=O)cc2)C(=O)O1` (stereo not given) were, in that order, greater than 128 µg/mL and 64 µg/mL (≈ 210 µM). The matching figures for `CC(=O)c1ccc(N2CC(CN)OC2=O)cc1.Cl` (stereo not given): greater than 128 µg/mL and greater than 128 µg/mL.

For `CC(=O)c1ccc(N2CC(CN3CCOCC3)OC2=O)cc1` (stereo not given), the MIC in assay [1] and in assay [2] was greater than 128 µg/mL throughout. For `COC(=O)NC[C@H]1CN(c2ccc(C(C)=O)cc2)C(=O)O1`, the MIC in assay [1] and in assay [2] was 4 µg/mL (≈ 13.7 µM) throughout. Turning to `COCC(=O)NC[C@H]1CN(c2ccc(C(C)=O)cc2)C(=O)O1`, the MIC in assay [1] and in assay [2] was 32 µg/mL (≈ 104 µM) each time. Take `CC(=O)NCC1CN(c2ccc(C(C)C)cc2)C(=O)O1` (stereo not given): the MIC in assay [1] and in assay [2] was 4 µg/mL (≈ 14.5 µM) in each case.

As for `CC1CN(c2ccc(S(C)(=O)=O)cc2)C(=O)O1` (stereo not given), the MIC in assay [1] is 128 µg/mL (≈ 501 µM); in assay [2] it was 64 µg/mL (≈ 251 µM). The matching figures for `CC(=O)NC[C@H]1CN(c2ccc(C(C)=O)cc2)C(=O)O1` [DUP-721]: 1 µg/mL (≈ 3.62 µM) and 0.5 µg/mL (≈ 1.81 µM). The like results for `COC(=O)c1nnn(CC2CN(c3ccc(C(C)=O)cc3)C(=O)O2)c1C(=O)OC` (stereo not given) were, in that order, greater than 128 µg/mL and greater than 128 µg/mL. The matching figures for `CCCC(=O)NC[C@H]1CN(c2ccc(C(C)=O)cc2)C(=O)O1`: 8 µg/mL (≈ 26.3 µM) and 8 µg/mL (≈ 26.3 µM).
